Reference: patent US10206909B2, “3-(1H-pyrrolo[2,3-B]pyridin-2-yl)-1H-pyrazolo[4,3-B]pyridines and therapeutic uses thereof” (Samumed, LLC, priority 2015, dated 2019)

How the values were obtained:
Format in all cases: cell-based
SW480 colon cancer cells = assay: Cell viability assay (CellTiter-Blue); conditions: Homo sapiens; for EC50: 96 h, SW480 cell viability, four days, CellTiter-Blue; for inhibition at 10 µM: given where EC50 >10 μM, SW480 viability, read-out: percent inhibition at 10 μM
Description: Representative compounds were screened using the following assay procedure to assess the effect on cell viability as described below.
Each compound was dissolved in DMSO as a 10 mM stock and used to prepare compound source plates. Serial dilution (1:3, 8-point dose-response curves from 10 μM to 0.0045 μM) and compound transfer was performed using the ECHO 550 (Labcyte, Sunnyvale, Calif.) into 96-well clear bottom, black-walled plates (Corning-Costar).
Approximately 2×10^3 SW480 colon cancer cells were seeded into each well and allowed to incubate in the presence or absence of compound for four days at 37° C./5% CO2. Eight replicates of DMSO-treated cells served as controls and cells treated with compound were performed in duplicate.
After incubation, 20 μL of CellTiter-Blue (Promega) was added to each well allowed to incubate for approximately 3 hours. This reagent was a buffered solution which contains resazurin, metabolically active cells were able to reduce rezarurin (blue) into resorufin (pink) which was highly fluorescent. This measured fluorescence was used as a readout for cell viability.
After incubation, the plates were read at Ex 560 nm Em 590 nm (Cytation 3, BioTek). Dose-response curves were generated and EC50 concentration values were calculated using non-linear regression curve fit in the GraphPad Prism (San Diego, Calif.) or Dotmatics' Studies Software (Bishops Stortford, UK). For EC50 of >10 μM, the percent inhibition at 10 μM is provided.

[1] = system: Wnt activity (Sp5-Luc reporter, SW480 colon carcinoma cells); assay: Wnt activity screening assay: Sp5-Luc reporter gene assay in SW480 cells; conditions: Homo sapiens; for EC50: SW480 cells, overnight incubation; for inhibition at 10 µM: given where EC50 >10 μM, SW480, read-out: percent inhibition at 10 μM
Text: The screening assay for Wnt activity is described as follows. Reporter cell lines can be generated by stably transducing cancer cell lines (e.g., colon cancer) or primary cells (e.g., IEC-6 intestinal cells) with a lentiviral construct that includes a Wnt-responsive promoter driving expression of the firefly luciferase gene.
SW480 colon carcinoma cells were transduced with a lentiviral vector expressing luciferase with a human Sp5 promoter consisting of a sequence of eight TCF/LEF binding sites. SW480 cells stably expressing the Sp5-Luc reporter gene and a hygromycin resistance gene were selected by treatment with 150 μg/mL of hygromycin for 7 days. These stably transduced SW480 cells were expanded in cell culture and used for all further screening activities. Each compound was dissolved in DMSO as a 10 mM stock and used to prepare compound source plates. Serial dilution (1:3, 10-point dose-response curves starting from 10 μM) and compound transfer was performed using the ECHO 550 (Labcyte, Sunnyvale, Calif.) into 384-well white solid bottom assay plates (Greiner Bio-One) with appropriate DMSO backfill for a final DMSO concentration of 0.1%. For Sp5-Luc reporter gene assays, the cells were plated at 4,000 cells/well in 384-well plates with medium containing 1% fetal bovine serum and incubated overnight at 37° C. and 5% CO2. Following incubation, 20 μl of BrightGlo luminescence reagent (Promega) was added to each well of the 384-well assay plates. The plates were placed on an orbital shaker for 2 min and then luminescence was quantified using the Envision (Perkin Elmer) plate reader. Readings were normalized to DMSO only treated cells, and normalized activities were utilized for EC50 calculations using the dose-response log (inhibitor) vs. response -variable slope (four parameters) nonlinear regression feature available in GraphPad Prism 5.0 (or Dotmatics). For EC50 of >10 μM, the percent inhibition at 10 μM is provided.

IL-6 (THP-1 cells) = assay: IL-6 inhibition in LPS-stimulated THP-1 cells (HTRF); conditions: Homo sapiens; for EC50: THP-1 cells, LPS 500 ng/mL, 22 hours, IL6 HTRF; for inhibition at 10 µM: given where EC50 >10 μM, THP-1, IL6, read-out: percent inhibition at 10 μM
Description: Human Monocyte Cell Culture: Human monocyte cell line (THP-1 cells; Catalog # TIB-202, ATCC, Manassas, Va.) were cultured in Roswell Park Memorial Institute (RPMI) 1640 Medium (Catalog #21870-100, Buffalo, N.Y.) with 1% L-glutamine, 1% HEPES, 1% Sodium Pyruvate, 2% Sodium Bicarbonate supplemented with 100 units/mL penicillin, 50 μg/mL streptomycin, 2-mercaptoethanol (0.05 mM) [basal medium] and 10% fetal bovine serum (Catalog #16140089, Life Technologies, Carlsbad, Calif.) at 37° C. and 5% CO2.
Compound Screening: THP-1 cells were cultured in basal media with 1% FBS for 24 hours before the start of the assay. Each compound was dissolved in DMSO as a 10 mM stock and used to prepare compound source plates. Serial dilution (1:3, 10-point dose-response curves starting from 10 μM) and compound transfer was performed using the ECHO 550 (Labcyte, Sunnyvale, Calif.) into 384-well white low volume assay plates (Greiner Bio-One) with appropriate DMSO backfill for a final DMSO concentration of 0.1%. THP-1 cells were plated at 5000 cells/well in the 384-well plates and incubated at 37° C. for 2 h. 500 ng/mL of LPS was added after 2 hours and cells were incubated for another 22 hours at 37° C. Plates were spun in a centrifuge for 1 minute at […] and a mixture of anti-IL6 XL665, and anti-IL6 Cryptate diluted in reconstitution buffer (Cisbio Inc.) was added to each well. Following incubation for 3 hrs at room temperature, Homogeneous Time-Resolved Fluorescence (HTRF) was measured using the Envision (Perkin Elmer) at 665 nm and […]. The ratio of fluorescence at 665 nm to 620 nm was used as a readout for IL6 quantification. All samples were processed in duplicate. Readings were normalized to DMSO treated cells and normalized activities were utilized for EC50 calculations using the dose-response log (inhibitor) vs. response —variable slope (four parameters) nonlinear regression feature available in GraphPad Prism 5.0 (or Dotmatics). For EC50 of >10 μM, the percent inhibition at 10 μM is provided.

EC50 (SW480 colon cancer cells) [µM] | EC50 [1] [µM] | EC50 (IL-6 (THP-1 cells)) [µM] | SMILES | inhibition at 10 µM (SW480 colon cancer cells) [%] | inhibition at 10 µM [1] [%] | inhibition at 10 µM (IL-6 (THP-1 cells)) [%]
> 10 | > 10 | > 10 | c1cc(-c2ccnc3[nH]c(-c4n[nH]c5ccc(-c6cncc(CN7CCCCC7)c6)nc45)cc23)ccn1 [Compound 127, 5-(5-(Piperidin-1-ylmethyl)pyridin-3-yl)-3-(4-(pyridin-4-yl)-1H-pyrrolo[2,3-b]pyridin-2-yl)-1H-pyrazolo[4,3-b]pyridine] | 14.5 | 5.8 | 30.2
> 10 | > 10 | 0.002 | c1cncc(-c2ccc3[nH]nc(-c4cc5cccnc5[nH]4)c3n2)c1 [Compound 256, 5-(Pyridin-3-yl)-3-(1H-pyrrolo[2,3-b]pyridin-2-yl)-1H-pyrazolo[4,3-b]pyridine] | 23.2 | 47 | 
> 10 | > 10 | > 10 | O=C(Cc1ccccc1)Nc1cncc(-c2ccc3[nH]nc(-c4cc5c(-c6ccoc6)ccnc5[nH]4)c3n2)c1 [Compound 318, N-(5-(3-(4-(Furan-3-yl)-1H-pyrrolo[2,3-b]pyridin-2-yl)-1H-pyrazolo[4,3-b]pyridin-5-yl)pyridin-3-yl)-2-phenylacetamide] | 3 | 3.4 | 46.6
> 10 | 0.517 | 0.1 | CC(C)CC(=O)Nc1cncc(-c2ccc3[nH]nc(-c4cc5c(-c6ccccc6F)ccnc5[nH]4)c3n2)c1 [Compound 58, N-(5-(3-(4-(2-Fluorophenyl)-1H-pyrrolo[2,3-b]pyridin-2-yl)-1H-pyrazolo [4,3-b]pyridin-5-yl)pyridin-3-yl)-3-methylbutanamide] | 11.5 |  | 
> 10 | 3.64 | 0.303 | c1csc(-c2ccnc3[nH]c(-c4n[nH]c5ccc(-c6cncc(OC7CCCCC7)c6)nc45)cc23)c1 [Compound 703, 5-(5-(Cyclohexyloxy)pyridin-3-yl)-3-(4-(thiophen-2-yl)-1H-pyrrolo[2,3-b]pyridin-2-yl)-1H-pyrazolo[4,3-b]pyridine] | 52.9 |  | 
> 10 | > 10 | > 10 | CN(C)CCNc1cc(F)cc(-c2ccnc3[nH]c(-c4n[nH]c5ccc(-c6ccncc6)nc45)cc23)c1 [Compound 466, N^1-(3-Fluoro-5-(2-(5-(pyridin-4-yl)-1H-pyrazolo[4,3-b]pyridin-3-yl)-1H-pyrrolo[2,3-b]pyridin-4-yl)phenyl)-N^2,N^2-dimethylethane-1,2-diamine] | 16.8 | 8.6 | 31
> 10 | > 10 | > 10 | CN(C)c1cncc(-c2ccc3[nH]nc(-c4cc5c(-c6cccnc6)ccnc5[nH]4)c3n2)c1 [Compound 91, N,N-Dimethyl-5-(3-(4-(pyridin-3-yl)-1H-pyrrolo[2,3-b]pyridin-2-yl)-1H-pyrazolo[4,3-b]pyridin-5-yl)pyridin-3-amine] | 3.5 | 18.2 | 36.3
0.345 | 0.104 | 0.107 | FC1(F)CCN(Cc2cncc(-c3ccc4[nH]nc(-c5cc6cccnc6[nH]5)c4n3)c2)C1 [Compound 278, 5-(5-((3,3-Difluoropyrrolidin-1-yl)methyl)pyridin-3-yl)-3-(1H-pyrrolo[2,3-b]pyridin-2-yl)-1H-pyrazolo[4,3-b]pyridine] |  |  | 
> 10 | > 10 | > 10 | CC(C)(C)C(=O)Nc1cncc(-c2ccc3[nH]nc(-c4cc5c(-c6cccc(F)c6)ccnc5[nH]4)c3n2)c1 [Compound 8, N-(5-(3-(4-(3-Fluorophenyl)-1H-pyrrolo[2,3-b]pyridin-2-yl)-1H-pyrazolo [4,3-b]pyridin-5-yl)pyridin-3-yl)pivalamide] | 18.4 | 14.3 | 13.7
> 10 | > 10 | > 10 | Cc1ccncc1-c1ccc2[nH]nc(-c3cc4c(-c5ccncc5)ccnc4[nH]3)c2n1 [Compound 117, 5-(4-Methylpyridin-3-yl)-3-(4-(pyridin-4-yl)-1H-pyrrolo[2,3-b]pyridin-2-yl)-1H-pyrazolo[4,3-b]pyridine] | 3.4 | 11.8 | 45.3
> 10 | > 10 | > 10 | c1cc(-c2ccnc3[nH]c(-c4n[nH]c5ccc(-c6cncc(OCCN7CCCC7)c6)nc45)cc23)ccn1 [Compound 578, 3-(4-(Pyridin-4-yl)-1H-pyrrolo[2,3-b]pyridin-2-yl)-5-(5-(2-(pyrrolidin-1-yl)ethoxy)pyridin-3-yl)-1H-pyrazolo[4,3-b]pyridine] | 14.7 | 7.7 | 27
> 10 | > 10 | > 10 | O=C(Nc1cncc(-c2ccc3[nH]nc(-c4cc5c(-c6ccc(F)cc6)ccnc5[nH]4)c3n2)c1)c1ccccc1 [Compound 39, N-(5-(3-(4-(4-Fluorophenyl)-1H-pyrrolo[2,3-b]pyridin-2-yl)-1H-pyrazolo [4,3-b]pyridin-5-yl)pyridin-3-yl)benzamide] | 11.1 | 0 | 7.7
> 10 | > 10 | 0.157 | O=C(Nc1cncc(-c2ccc3[nH]nc(-c4cc5cccnc5[nH]4)c3n2)c1)C1CCCCC1 [Compound 275, N-(5-(3-(1H-Pyrrolo[2,3-b]pyridin-2-yl)-1H-pyrazolo[4,3-b]pyridin-5-yl)pyridin-3-yl)cyclohexanecarboxamide] | 10.5 | 14.9 | 
4.7 | > 10 | > 10 | O=C(Nc1cncc(-c2ccc3[nH]nc(-c4cc5c(-c6ccccc6F)ccnc5[nH]4)c3n2)c1)C1CC1 [Compound 76, N-(5-(3-(4-(2-Fluorophenyl)-1H-pyrrolo[2,3-b]pyridin-2-yl)-1H-pyrazolo [4,3-b]pyridin-5-yl)pyridin-3-yl)cyclopropanecarboxamide] |  | 37.3 | 42.2
